Reference: US20030180345A1, “Compositions and methods for inhibiting islet dysfunction and autoimmune disorders” (priority 2000, published 2003)

Tests used:
[1] = test system: Fas; test: Islet Fas immunoreactivity with dietary taurine supplementation; assay type: in vivo, Wistar rats; conditions: post-natal day 14
Experimental: Animals and diets were prepared as described in Example 8. The pancreas was removed, and the presence of Fas, Fas ligand, inducible nitric oxide synthase (iNOS) and vascular endothelial growth factor (VEGF) were evaluated in pancreatic sections using immunoreactivity.

[2] = test system: islet cells; test: Islet cell proliferation with maternal dietary taurine supplementation (BrdU immunostaining); assay type: in vivo, Wistar rats
Experimental: Adult virgin female Wistar rats were caged overnight with males and copulation was verified the next morning. Animals were maintained at 25° C. with a 10 h-14 h dark-light cycle. Pregnant rats were divided into four groups and fed one of the following isocaloric diets, either with or without taurine supplemented in the drinking water. […] The composition of the basal and low protein diets were described previously by Snoeck et a/.1990 (Biol. Neonate 57, 107-118). The diets were purchased from Hope Farms (Woerden, Holland). Animals in both the groups had free access to water at all times. Animals were divided into four groups to assess various parameters at different time periods. Females were sacrificed at 21.5 days of gestation by decapitation and fetuses were removed in order to evaluate parameters at fetal day 21.5 (F 21.5). Alternatively, animals gave birth and offspring were sacrificed at post-natal day 12, 14 or 30 (PN 12, PN 14, and PN 30, respectively). Bromodeoxyuridine (BrdU) incorporation was evaluated by immunostaining as described by […] et al., (Endocrinology 1999;140: 4861-4873).

NCCS(=O)(=O)O [taurine, 2-aminoethylsulfonic acid]
immunoreactive Fas within islets [1]: reduced
β cell proliferation rate (BrdU incorporation) ([2]; C+Taurine, 2.5% taurine in maternal drinking water): did not significantly increase
islet cell proliferation rate (BrdU incorporation) ([2]; LP+Taurine, 2.5% (weight/volume) taurine in maternal drinking water): restore the proliferation rate to a level not significantly different from the control diet
